In US8471005B2 (Cephalon, Inc., priority 2008, dated 2013):
Where two headings read alike, the source gives them in different places.

Key:
ALK = target: T1, ALK (Homo sapiens, UniProt Q9UM73); experiment: ALK Kinase Assay (ELISA/TRF, PLC-γ substrate); assay type: biochemical; details: read-out: ALK Potency
T1 construct: host or cells: baculovirus expression system
How it was run: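 PLC-γ substrate coated at 10 μg/mL in TBS; reaction started with 30 ng/ml ALK, run 15 min at 37° C. Phosphoproduct detected by TRF with Eu-N1-labeled PT66 anti-phosphotyrosine antibody. IC50 from sigmoidal variable-slope fit of percent inhibition versus log concentration.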

JAK2 = target: T2, JAK2 (Homo sapiens, UniProt O60674); experiment: Recombinant Human JAK2 Kinase Assay (TRF); assay type: biochemical; details: read-out: JAK2 Potency
T2 construct: host or cells: baculovirus expression system
How it was run: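 Baculovirus-expressed JAK2 (15 ng/ml) phosphorylated a biotinylated 15-mer peptide captured on Neutravidin-coated plates, in 20 mM HEPES pH 7.2 with 0.2 μM ATP, 1 mM MnCl2, 0.1% BSA and 2.5% DMSO. Reaction ran 20 min at room temperature; phosphopeptide was detected by time-resolved fluorescence with Eu-N1-labelled PY100 antibody.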

[1] = ALK kinase inhibition, 1 μM ATP
[2] = JAK2 kinase inhibition, 0.2 μM ATP

T2 sequence (O60674 whole entry): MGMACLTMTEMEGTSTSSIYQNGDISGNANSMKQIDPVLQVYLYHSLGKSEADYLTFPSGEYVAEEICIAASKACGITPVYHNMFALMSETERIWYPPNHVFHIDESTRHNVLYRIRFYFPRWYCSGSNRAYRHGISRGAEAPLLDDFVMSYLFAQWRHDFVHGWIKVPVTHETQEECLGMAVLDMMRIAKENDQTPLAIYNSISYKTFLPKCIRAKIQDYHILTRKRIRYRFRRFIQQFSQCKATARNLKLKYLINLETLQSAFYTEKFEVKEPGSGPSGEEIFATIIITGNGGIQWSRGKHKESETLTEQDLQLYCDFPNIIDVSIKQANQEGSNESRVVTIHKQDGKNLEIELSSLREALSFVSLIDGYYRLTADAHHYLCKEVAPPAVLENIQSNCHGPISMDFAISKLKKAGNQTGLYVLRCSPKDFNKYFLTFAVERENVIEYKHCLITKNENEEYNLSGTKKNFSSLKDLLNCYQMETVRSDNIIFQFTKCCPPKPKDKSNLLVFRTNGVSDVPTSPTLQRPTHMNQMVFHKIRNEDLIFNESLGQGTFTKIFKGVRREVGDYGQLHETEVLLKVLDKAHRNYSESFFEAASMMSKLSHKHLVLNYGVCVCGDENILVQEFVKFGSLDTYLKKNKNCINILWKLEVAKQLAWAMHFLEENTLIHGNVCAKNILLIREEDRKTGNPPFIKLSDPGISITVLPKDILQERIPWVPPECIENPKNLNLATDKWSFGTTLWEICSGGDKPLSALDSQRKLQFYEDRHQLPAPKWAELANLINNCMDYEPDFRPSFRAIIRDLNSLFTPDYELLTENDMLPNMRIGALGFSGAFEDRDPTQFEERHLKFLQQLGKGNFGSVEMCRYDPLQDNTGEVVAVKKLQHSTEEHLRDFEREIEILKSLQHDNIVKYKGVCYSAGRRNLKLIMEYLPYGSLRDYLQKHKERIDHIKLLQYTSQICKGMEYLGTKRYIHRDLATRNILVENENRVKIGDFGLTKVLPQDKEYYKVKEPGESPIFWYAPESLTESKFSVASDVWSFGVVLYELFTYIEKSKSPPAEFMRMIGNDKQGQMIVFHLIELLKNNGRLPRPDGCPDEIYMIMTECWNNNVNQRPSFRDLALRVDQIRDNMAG
T1 sequence (Q9UM73 19-1620): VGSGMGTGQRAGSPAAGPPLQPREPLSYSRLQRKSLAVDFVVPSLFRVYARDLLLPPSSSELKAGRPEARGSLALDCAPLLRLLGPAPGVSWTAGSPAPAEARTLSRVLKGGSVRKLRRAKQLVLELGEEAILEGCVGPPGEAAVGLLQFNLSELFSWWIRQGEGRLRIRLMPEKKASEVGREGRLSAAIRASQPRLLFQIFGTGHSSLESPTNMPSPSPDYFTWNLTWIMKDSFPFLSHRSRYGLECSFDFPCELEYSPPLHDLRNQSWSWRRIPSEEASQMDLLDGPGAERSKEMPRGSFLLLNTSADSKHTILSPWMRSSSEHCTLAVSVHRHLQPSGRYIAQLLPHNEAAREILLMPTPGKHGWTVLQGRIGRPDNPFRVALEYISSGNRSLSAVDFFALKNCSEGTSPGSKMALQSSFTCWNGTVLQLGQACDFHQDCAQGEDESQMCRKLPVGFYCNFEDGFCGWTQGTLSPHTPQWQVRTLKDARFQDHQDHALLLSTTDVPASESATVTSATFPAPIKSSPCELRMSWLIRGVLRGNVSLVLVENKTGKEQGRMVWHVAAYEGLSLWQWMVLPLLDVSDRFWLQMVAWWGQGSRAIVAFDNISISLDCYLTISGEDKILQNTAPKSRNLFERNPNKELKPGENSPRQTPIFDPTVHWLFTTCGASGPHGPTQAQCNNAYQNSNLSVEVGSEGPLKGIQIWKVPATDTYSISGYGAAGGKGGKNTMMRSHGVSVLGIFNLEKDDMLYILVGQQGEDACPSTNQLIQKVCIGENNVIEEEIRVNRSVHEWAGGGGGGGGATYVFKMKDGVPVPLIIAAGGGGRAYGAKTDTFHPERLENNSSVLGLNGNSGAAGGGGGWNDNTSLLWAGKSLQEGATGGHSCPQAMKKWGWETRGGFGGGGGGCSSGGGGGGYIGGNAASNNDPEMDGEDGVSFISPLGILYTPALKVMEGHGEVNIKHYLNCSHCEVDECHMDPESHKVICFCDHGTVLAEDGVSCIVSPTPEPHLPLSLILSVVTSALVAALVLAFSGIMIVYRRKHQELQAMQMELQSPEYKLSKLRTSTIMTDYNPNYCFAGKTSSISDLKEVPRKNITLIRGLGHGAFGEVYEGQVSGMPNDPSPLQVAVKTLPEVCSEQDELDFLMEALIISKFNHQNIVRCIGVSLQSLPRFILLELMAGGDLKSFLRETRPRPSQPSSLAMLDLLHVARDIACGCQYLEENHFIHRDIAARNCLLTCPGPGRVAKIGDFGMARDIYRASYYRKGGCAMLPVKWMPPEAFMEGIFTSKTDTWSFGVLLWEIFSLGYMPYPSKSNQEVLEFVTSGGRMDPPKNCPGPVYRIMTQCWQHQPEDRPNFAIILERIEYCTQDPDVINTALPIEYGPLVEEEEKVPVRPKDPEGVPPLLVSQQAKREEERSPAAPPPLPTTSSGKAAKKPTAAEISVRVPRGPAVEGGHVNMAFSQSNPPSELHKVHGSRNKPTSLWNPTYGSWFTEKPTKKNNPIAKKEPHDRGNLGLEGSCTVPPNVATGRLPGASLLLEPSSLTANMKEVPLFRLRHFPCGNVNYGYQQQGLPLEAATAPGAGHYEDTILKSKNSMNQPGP

Structure (SMILES) | IC50 (ALK; ALK Kinase Inhibition) | IC50 (JAK2; JAK2 Kinase Inhibition) | IC50 (ALK; [1]) | IC50 (JAK2; [2])
C[C@@H](O)CN1CCN(c2cccc(Nc3ncc4ccc(-c5ccc(S(C)(=O)=O)cc5)n4n3)c2)CC1 [Example 217, (R)-1-(4-{3-[7-(4-Methanesulfonyl-phenyl)-pyrrolo[2,1-f][1,2,4]triazin-2-ylamino]-phenyl}-piperazin-1-yl)-propan-2-ol] | 100 to 1000 nM | < 100 nM |  | 
Cc1nc2ccc(Nc3ncc4ccc(-c5cccc(S(=O)(=O)NC(C)(C)C)c5)n4n3)cc2n1C [Example 1331, N-tert-Butyl-3-[2-(2,3-dimethyl-3H-benzimidazol-5-ylamino)-pyrrolo[2,1-f][1,2,4]triazin-7-yl]-benzenesulfonamide] |  |  | 100 to 1000 nM | < 100 nM
c1cc2c(c(-c3ccc4cnc(Nc5cnn(C6CCNCC6)c5)nn34)c1)OCC2 [Example 715, [7-(2,3-Dihydrobenzofuran-7-yl)pyrrolo[2,1-f][1,2,4]triazin-2-yl]-(1-piperidin-4-yl-1H-pyrazol-4-yl)amine] |  |  | 100 to 1000 nM | < 100 nM
CC(=O)Nc1cccc(Nc2ncc3ccc(-c4cccc(S(=O)(=O)N5CC[C@H](O)C5)c4)n3n2)c1 [Example 884, N-(3-{7-[3-((S)-3-Hydroxy-pyrrolidine-1-sulfonyl)-phenyl]-pyrrolo[2,1-f][1,2,4]triazin-2-ylamino}-phenyl)-acetamide] |  |  | 1000 to 10000 nM | < 100 nM
COc1ccc(-c2ccc3cnc(Nc4ccc5[nH]c(=O)[nH]c5c4)nn23)cn1 [Example 1309, 5-[7-(6-Methoxy-pyridin-3-yl)-pyrrolo[2,1-f][1,2,4]triazin-2-ylamino]-1,3-dihydro-benzimidazol-2-one] |  |  | 1000 to 10000 nM | < 100 nM
CN(C)CC(=O)Nc1cccc(Nc2ncc3ccc(-c4cccc(S(=O)(=O)NC(C)(C)C)c4)n3n2)c1 [Example 897, N-{3-[7-(3-tert-Butylsulfamoyl-phenyl)-pyrrolo[2,1-f][1,2,4]triazin-2-ylamino]-phenyl}-2-dimethylamino-acetamide] |  |  | < 100 nM | < 100 nM
COc1cc2c(cc1Nc1ncc3ccc(-c4ccccc4N(C)S(C)(=O)=O)n3n1)CN(C(=O)CN)C2 [Example 879, N-(2-{2-[2-(2-Amino-acetyl)-6-methoxy-2,3-dihydro-1H-isoindol-5-ylamino]-pyrrolo[2,1-f][1,2,4]triazin-7-yl}-phenyl)-N-methyl-methanesulfonamide] |  |  | < 100 nM | 100 to 1000 nM
COc1ccc(-c2ccc3cnc(Nc4ccc5c(c4)N(C)CCC5)nn23)cn1 [Example 980, [7-(6-Methoxy-pyridin-3-yl)-pyrrolo[2,1-f][1,2,4]triazin-2-yl]-(1-methyl-1,2,3,4-tetrahydro-quinolin-7-yl)-amine] |  |  | > 10000 nM | < 100 nM
NC(=O)CN1CCC(c2ccc(Nc3ncc4ccc(-c5cccc(S(=O)(=O)NC6CC6)c5)n4n3)cc2)CC1 [Example 930, 2-(4-{4-[7-(3-Cyclopropylsulfamoyl-phenyl)-pyrrolo[2,1-f][1,2,4]triazin-2-ylamino]-phenyl}-piperidin-1-yl)-acetamide] |  |  | < 100 nM | < 100 nM
CN1CCN(C(=O)c2ccc(Nc3ncc4ccc(-c5cccnc5)n4n3)cc2)CC1 [Example 321, (4-Methyl-piperazin-1-yl)-[4-(7-pyridin-3-yl-pyrrolo[2,1-f][1,2,4]triazin-2-ylamino)-phenyl]-methanone] | 100 to 1000 nM | < 100 nM |  | 
COc1cc(C2CCN(CC(N)=O)CC2)ccc1Nc1ncc2ccc(-c3ncccc3OC)n2n1 [Example 1532, 2-(4-{3-Methoxy-4-[7-(3-methoxy-pyridin-2-yl)-pyrrolo[2,1-f][1,2,4]triazin-2-ylamino]-phenyl}-piperidin-1-yl)-acetamide] | 1000 to 10000 nM | 1000 to 10000 nM |  | 
CN(c1ccccc1-c1ccc2cnc(Nc3cnn(CCN4CCOCC4)c3)nn12)S(C)(=O)=O [Example 1193, N-Methyl-N-(2-{2-[1-(2-morpholin-4-yl-ethyl)-1H-pyrazol-4-ylamino]-pyrrolo[2,1-f][1,2,4]triazin-7-yl}-phenyl)-methanesulfonamide] |  |  | 1000 to 10000 nM | < 100 nM
COc1cc(C2CCN(CC(N)=O)CC2)ccc1Nc1ncc2ccc(-c3cccc4c3OC(F)(F)O4)n2n1 [Example 1533, 2-(4-{4-[7-(2,2-Difluoro-benzo[1,3]dioxol-4-yl)-pyrrolo[2,1-f][1,2,4]triazin-2-ylamino]-3-methoxy-phenyl}-piperidin-1-yl)-acetamide] | < 100 nM | 1000 to 10000 nM |  | 

The remaining lines, values ahead:

IC50 (ALK; ALK Kinase Inhibition) | IC50 (JAK2; JAK2 Kinase Inhibition) | IC50 (ALK; [1]) | IC50 (JAK2; [2]) | Structure (SMILES)
100 to 1000 nM | < 100 nM |  |  | COc1cc(N2CCN(C)CC2)ccc1Nc1ncc2ccc(-c3ccc(S(C)(=O)=O)cc3)n2n1 [Example 62, [7-(4-Methanesulfonyl-phenyl)-pyrrolo[2,1-f][1,2,4]triazin-2-yl]-[2-methoxy-4-(4-methyl-piperazin-1-yl)-phenyl]-amine]
< 100 nM | 100 to 1000 nM |  |  | COc1cc(N2CCC(C)(N3CCOCC3)CC2)ccc1Nc1ncc2ccc(-c3ccccc3N(C)S(C)(=O)=O)n2n1 [Example 1468, N-(2-{2-[2-Methoxy-4-(4-methyl-4-morpholin-4-yl-piperidin-1-yl)-phenylamino]-pyrrolo[2,1-f][1,2,4]triazin-7-yl}-phenyl)-N-methyl-methanesulfonamide]
< 100 nM | < 100 nM |  |  | COc1cc(N2CCC(N3CCOCC3)CC2)ccc1Nc1ncc2ccc(-c3ccccc3N(CC3CC3)S(C)(=O)=O)n2n1 [Example 1461, N-Cyclopropylmethyl-N-(2-{2-[2-methoxy-4-(4-morpholin-4-yl-piperidin-1-yl)-phenylamino]-pyrrolo[2,1-f][1,2,4]triazin-7-yl}-phenyl)-methanesulfonamide]
 |  | 100 to 1000 nM | 100 to 1000 nM | COc1cc(N2CCN(c3ccccn3)CC2)ccc1Nc1ncc2ccc(-c3ccccc3OC)n2n1 [Example 994, [7-(2-Methoxy-phenyl)-pyrrolo[2,1-f][1,2,4]triazin-2-yl]-[2-methoxy-4-(4-pyridin-2-yl-piperazin-1-yl)-phenyl]-amine]
> 10000 nM | < 100 nM |  |  | CN(C)S(=O)(=O)c1ccc(-c2ccc3cnc(Nc4ccc(N5CCOCC5)cc4)nn23)cc1 [Example 71, N,N-Dimethyl-4-[2-(4-morpholin-4-yl-phenylamino)-pyrrolo[2,1-f][1,2,4]triazin-7-yl]-benzenesulfonamide]
100 to 1000 nM | < 100 nM |  |  | CN1CCN(C2CCN(c3ccc(Nc4ncc5ccc(-c6cccnc6)n5n4)cc3)CC2)CC1 [Example 313, {4-[4-(4-Methyl-piperazin-1-yl)-piperidin-1-yl]-phenyl}-(7-pyridin-3-yl-pyrrolo[2,1-f][1,2,4]triazin-2-yl)-amine]
 |  | < 100 nM | 100 to 1000 nM | COc1cc(CN2CCN(CC(O)CF)CC2)ccc1Nc1ncc2ccc(-c3ccccc3OC)n2n1 (centres unmarked) [Example 1243, 1-Fluoro-3-(4-{3-methoxy-4-[7-(2-methoxy-phenyl)-pyrrolo[2,1-f][1,2,4]triazin-2-ylamino]-benzyl}-piperazin-1-yl)-propan-2-ol]
 |  | < 100 nM | < 100 nM | N#Cc1ccccc1-c1ccc2cnc(Nc3ccc(C4CCN(CC(N)=O)CC4)cc3)nn12 [Example 513, 2-(4-{4-[7-(2-Cyano-phenyl)-pyrrolo[2,1-f][1,2,4]triazin-2-ylamino]-phenyl}-piperidin-1-yl)-acetamide]
< 100 nM | < 100 nM |  |  | COc1ccccc1-c1ccc2cnc(Nc3cccc(N4CCN(CC(C)(C)O)CC4)c3)nn12 [Example 218, 1-(4-{3-[7-(2-Methoxy-phenyl)-pyrrolo[2,1-f][1,2,4]triazin-2-ylamino]-phenyl}-piperazin-1-yl)-2-methyl-propan-2-ol]
100 to 1000 nM | < 100 nM |  |  | OCCN1CCN(c2ccc(Nc3ncc4ccc(-c5cccnc5)n4n3)cc2)CC1 [Example 115, 2-{4-[4-(7-Pyridin-3-yl-pyrrolo[2,1-f][1,2,4]triazin-2-ylamino)-phenyl]-piperazin-1-yl}-ethanol]
100 to 1000 nM | < 100 nM |  |  | COc1cccc(-c2ccc3cnc(Nc4ccc(N5CCN(C)CC5)cc4)nn23)c1 [Example 423, [7-(3-Methoxy-phenyl)-pyrrolo[2,1-f][1,2,4]triazin-2-yl]-[4-(4-methyl-piperazin-1-yl)-phenyl]-amine]
 |  | < 100 nM | < 100 nM | CN(c1ccccc1-c1ccc2cnc(Nc3ccc(N4CCN(CCO)CC4)cc3)nn12)S(C)(=O)=O [Example 1175, N-[2-(2-{4-[4-(2-Hydroxy-ethyl)-piperazin-1-yl]-phenylamino}-pyrrolo[2,1-f][1,2,4]triazin-7-yl)-phenyl]-N-methyl-methanesulfonamide]
1000 to 10000 nM | < 100 nM |  |  | FC(F)(F)c1cc(-c2ccc3cnc(Nc4ccc(N5CCOCC5)cc4)nn23)ccc1Cl [Example 58, [7-(4-Chloro-3-trifluoromethyl-phenyl)-pyrrolo[2,1-f][1,2,4]triazin-2-yl]-(4-morpholin-4-yl-phenyl)-amine]
 |  | < 100 nM | < 100 nM | CCN(CC)C1CCN(c2ccc(Nc3ncc4ccc(-c5ccccc5OC)n4n3)cc2)CC1 [Example 1138, [4-(4-Diethylamino-piperidin-1-yl)-phenyl]-[7-(2-methoxy-phenyl)-pyrrolo[2,1-f][1,2,4]triazin-2-yl]-amine]
 |  | < 100 nM | 100 to 1000 nM | COc1cc(C2CCN(Cc3ncc[nH]3)CC2)ccc1Nc1ncc2ccc(-c3ccccc3OC)n2n1 [Example 868, {4-[1-(1H-Imidazol-2-ylmethyl)-piperidin-4-yl]-2-methoxy-phenyl}-[7-(2-methoxy-phenyl)-pyrrolo[2,1-f][1,2,4]triazin-2-yl]-amine]
